Experimental data as given in paper PMC6364417, “Kinase inhibitor library screening identifies synergistic drug combinations effective in sensitive and resistant melanoma cells” (Journal of Experimental & Clinical Cancer Research : CR, 2019).
Where two headings read alike, the source gives them in different places.

Legend:
A375 cells = test: Synergy determination with the Chou-Talalay method (CompuSyn), cell viability 72 h; format: cell-based, human; conditions: 72 h cell viability, Chou-Talalay / Synergyfinder
Protocol: The Chou-Talalay method to determine possible synergistic effects of selected kinase inhibitor combinations was used as described in [19]. […] Cells were treated with either single inhibitors or combinations thereof at indicated amounts in technical triplicates. The amounts were pre-determined from each inhibitor’s IC50 value and inhibitors were assayed in a defined dilution series and at constant ratio when combined. […] Combination Index (CI) values showing either synergy (< 1) or antagonism (> 1) were calculated with the CompuSyn software (ComboSyn, Inc).

[1] = tested on: A375-GP cells (Dabrafenib-resistant); test: Dose-response curves and IC50, PrestoBlue cell viability, 72 h; format: cell-based, human; conditions: n.e. = did not suppress growth below 50% in the tested concentration range, read-out: Half-maximal inhibitory concentration value (IC50), Mean
A375 cells (parental) [2] = test: as above; format: cell-based, human; conditions: read-out: Half-maximal inhibitory concentration value (IC50), Mean
501Mel cells (parental) = test: Kinase inhibitor library screening, PrestoBlue cell viability, 1 or 10 μM, 72 h; conditions: for viability at 1 µM / viability at 10 µM: Homo sapiens, 72 h; for viability at 1 µM: read-out: cell viability, 501Mel Parental, 1μΜ; for viability at 10 µM: read-out: cell viability, 501Mel Parental, 10μΜ; for cell viability (kinase inhibitor library screening): 501Mel Parental, in %
How it was run: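 PrestoBlue viability readout after 72 h exposure to each inhibitor at 1 or 10 μM, reported relative to untreated cells as % viability. Lines tested: sensitive parental plus derivatives resistant to Vemurafenib (XP) or Dabrafenib (GP), each run at least in duplicate.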

IGR37 cells (parental) = test: as above; conditions: for viability at 1 µM / viability at 10 µM: Homo sapiens, IGR-37, 72 h; for viability at 1 µM: read-out: cell viability, IGR37 Parental, 1μΜ; for viability at 10 µM: read-out: cell viability, IGR37 Parental, 10μΜ; for cell viability (kinase inhibitor library screening): IGR37 Parental, in %
[3] = tested on: 501Mel-XP cells (Vemurafenib-resistant); test: as above; conditions: for viability at 1 µM / viability at 10 µM: Homo sapiens, 72 h; for viability at 1 µM: read-out: cell viability, 501Mel XP, 1μΜ; for viability at 10 µM: read-out: cell viability, 501Mel XP, 10μΜ; for cell viability (kinase inhibitor library screening): 501Mel XP, in %
[4] = tested on: 501Mel-GP cells (Dabrafenib-resistant); test: as above; conditions: for viability at 1 µM / viability at 10 µM: Homo sapiens, 72 h; for viability at 1 µM: read-out: cell viability, 501Mel GP, 1μΜ; for viability at 10 µM: read-out: cell viability, 501Mel GP, 10μΜ; for cell viability (kinase inhibitor library screening): 501Mel GP, in %
[5] = tested on: A375-XP cells (Vemurafenib-resistant); test: as above; conditions: for viability at 1 µM / viability at 10 µM: Homo sapiens, A-375, 72 h; for viability at 1 µM: read-out: cell viability, A375 XP, 1μΜ; for viability at 10 µM: read-out: cell viability, A375 XP, 10μΜ
[6] = tested on: IGR37-XP cells (Vemurafenib-resistant); test: as above; conditions: for viability at 1 µM / viability at 10 µM: Homo sapiens, IGR-37, 72 h; for viability at 1 µM: read-out: cell viability, IGR37 XP, 1μΜ; for viability at 10 µM: read-out: cell viability, IGR37 XP, 10μΜ; for cell viability (kinase inhibitor library screening): IGR37 XP, in %
A375 cells (parental) [7] = test: as above; conditions: for viability at 1 µM / viability at 10 µM: Homo sapiens, A-375, 72 h; for viability at 1 µM: read-out: cell viability, A375 Parental, 1μΜ; for viability at 10 µM: read-out: cell viability, A375 Parental, 10μΜ; for cell viability (kinase inhibitor library screening): A375 Parental, in %
[8] = tested on: A375-GP cells (Dabrafenib-resistant); test: as above; conditions: for viability at 1 µM / viability at 10 µM: Homo sapiens, A-375, 72 h; for viability at 1 µM: read-out: cell viability, A375 GP, 1μΜ; for viability at 10 µM: read-out: cell viability, A375 GP, 10μΜ; for cell viability (kinase inhibitor library screening): A375 GP, in %
[9] = tested on: IGR37-GP cells (Dabrafenib-resistant); test: as above; conditions: for viability at 1 µM / viability at 10 µM: Homo sapiens, IGR-37, 72 h; for viability at 1 µM: read-out: cell viability, IGR37 GP, 1μΜ; for viability at 10 µM: read-out: cell viability, IGR37 GP, 10μΜ; for cell viability (kinase inhibitor library screening): IGR37 GP, in %
[10] = tested on: A375-XP cells (Vemurafenib-resistant); test: Dose-response curves and IC50, PrestoBlue cell viability, 72 h; format: cell-based, human; conditions: n.e. = did not suppress growth below 50% in the tested concentration range, read-out: Half-maximal inhibitory concentration value (IC50), Mean
[11] = Homo sapiens, A-375, n.e. = did not suppress growth below 50% in the tested concentration range

Structure (SMILES): Cc1cc(C(=O)NOCCO)c(Nc2ccc(I)cc2F)n(C)c1=O [AZD8330, reference compound]
- synergistic effects with the BRAF inhibitors Vemurafenib and/or Dabrafenib (in words) (A375 cells): synergistic effects at low concentrations
- IC50 ([1]; Homo sapiens): 3.2 nM
- IC50 (A375 cells (parental) [2]; [11]): 1.8 nM
- viability at 1 µM (501Mel cells (parental)): 48.9%
- viability at 10 µM (501Mel cells (parental)): 52.5%
- viability at 1 µM (IGR37 cells (parental)): 33%
- viability at 10 µM (IGR37 cells (parental)): 34%
- viability at 1 µM [3]: 69.7%
- viability at 10 µM [3]: 56.7%
- viability at 1 µM [4]: 86.3%
- viability at 10 µM [4]: 74.6%
- viability at 1 µM [5]: 10.5%
- viability at 10 µM [5]: 12.1%
- viability at 1 µM [6]: 45.7%
- viability at 10 µM [6]: 19%
- viability at 1 µM (A375 cells (parental) [7]): 17.3%
- viability at 10 µM (A375 cells (parental) [7]): 17.7%
- viability at 1 µM [8]: 17.9%
- viability at 10 µM [8]: 13.3%
- viability at 1 µM [9]: 57.5%
- viability at 10 µM [9]: 52%

Structure (SMILES): O=C(Cc1ccc(-c2ccc(OCCN3CCOCC3)cc2)cn1)NCc1ccccc1 [KX2-391, reference compound]
- IC50 [10]: 46 nM
- synergistic effects with the BRAF inhibitors Vemurafenib and/or Dabrafenib (in words) (A375 cells): did not act synergistically
- IC50 [1]: 37 nM
- IC50 (A375 cells (parental) [2]; n.e. = did not suppress growth below 50% in the tested concentration range): 42 nM
- cell viability (kinase inhibitor library screening) (501Mel cells (parental); 1μΜ): 16.9
- cell viability (kinase inhibitor library screening) (501Mel cells (parental); 10μΜ): 24.4
- cell viability (kinase inhibitor library screening) (IGR37 cells (parental); 1μΜ): 11.7
- cell viability (kinase inhibitor library screening) (IGR37 cells (parental); 10μΜ): 19.5
- cell viability (kinase inhibitor library screening) ([3]; 1μΜ): 9.9
- cell viability (kinase inhibitor library screening) ([3]; 10μΜ): 14.1
- cell viability (kinase inhibitor library screening) ([4]; 1μΜ): 15.9
- cell viability (kinase inhibitor library screening) ([4]; 10μΜ): 19.8
- cell viability (kinase inhibitor library screening) ([5]; A375 XP, 1μΜ, in %): 21.2
- cell viability (kinase inhibitor library screening) ([6]; 1μΜ): 45.0
- cell viability (kinase inhibitor library screening) ([6]; 10μΜ): 36.6
- cell viability (kinase inhibitor library screening) (A375 cells (parental) [7]; 1μΜ): 20.3
- cell viability (kinase inhibitor library screening) (A375 cells (parental) [7]; 10μΜ): 16.5
- cell viability (kinase inhibitor library screening) ([8]; 1μΜ): 22.8
- cell viability (kinase inhibitor library screening) ([8]; 10μΜ): 19.7
- cell viability (kinase inhibitor library screening) ([9]; 1μΜ): 70.8
- cell viability (kinase inhibitor library screening) ([9]; 10μΜ): 68.8

Structure (SMILES): O=C(Nc1cc(C(F)(F)F)cc(C(F)(F)F)c1)c1cc(Cl)ccc1O [IMD 0354, reference compound]
- IC50 ([10]; Homo sapiens): 1000 nM
- synergistic effects with the BRAF inhibitors Vemurafenib and/or Dabrafenib (in words) (A375 cells): did not act synergistically
- IC50 ([1]; Homo sapiens): 738 nM
- IC50 (A375 cells (parental) [2]; [11]): 640 nM
- viability at 1 µM (501Mel cells (parental)): 34.2%
- viability at 10 µM (501Mel cells (parental)): -0.0333%
- viability at 1 µM (IGR37 cells (parental)): 59.5%
- viability at 10 µM (IGR37 cells (parental)): 2.8%
- viability at 1 µM [3]: 26%
- viability at 10 µM [3]: -0.369%
- viability at 1 µM [4]: 25.5%
- viability at 10 µM [4]: -0.276%
- viability at 1 µM [5]: 29.7%
- viability at 10 µM [5]: 4.8%
- viability at 1 µM [6]: 41.2%
- viability at 10 µM [6]: 4.1%
- viability at 1 µM (A375 cells (parental) [7]): 23.1%
- viability at 10 µM (A375 cells (parental) [7]): 6.5%
- viability at 1 µM [8]: 25.5%
- viability at 10 µM [8]: 8.1%
- viability at 1 µM [9]: 46.7%
- viability at 10 µM [9]: 15.4%
